Where two headings read alike, the source gives them in different places.
Assays:
HDAC10 = HDAC10 (Homo sapiens (Human), UniProt Q969S8); test: Enzymatic screening, HDAC10 inhibition; assay type: biochemical
Procedure, shortened: (§1)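 Enzyme was preincubated with compound (8 doses, triplicate, 1% DMSO) in 25 mM Tris-HCl pH 8, 130 mM NaCl, 0.05% Tween-20, 10% glycerol, with BSA at 2 mg/mL (HDAC4, HDAC9) or 1 mg/mL (HDAC8, HDAC10). A FLUOR DE LYS, FLUOR DE LYS-Green or Boc-Lys(Tfa)-AMC substrate was then added, and fluorescence was read after developer plus 2 μM TSA.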

HDAC7 = HDAC7 (Homo sapiens (Human), UniProt Q8WUI4); test: Enzymatic screening, HDAC7 inhibition; assay type: biochemical
Chain of HDAC7 (Q8WUI4 whole entry): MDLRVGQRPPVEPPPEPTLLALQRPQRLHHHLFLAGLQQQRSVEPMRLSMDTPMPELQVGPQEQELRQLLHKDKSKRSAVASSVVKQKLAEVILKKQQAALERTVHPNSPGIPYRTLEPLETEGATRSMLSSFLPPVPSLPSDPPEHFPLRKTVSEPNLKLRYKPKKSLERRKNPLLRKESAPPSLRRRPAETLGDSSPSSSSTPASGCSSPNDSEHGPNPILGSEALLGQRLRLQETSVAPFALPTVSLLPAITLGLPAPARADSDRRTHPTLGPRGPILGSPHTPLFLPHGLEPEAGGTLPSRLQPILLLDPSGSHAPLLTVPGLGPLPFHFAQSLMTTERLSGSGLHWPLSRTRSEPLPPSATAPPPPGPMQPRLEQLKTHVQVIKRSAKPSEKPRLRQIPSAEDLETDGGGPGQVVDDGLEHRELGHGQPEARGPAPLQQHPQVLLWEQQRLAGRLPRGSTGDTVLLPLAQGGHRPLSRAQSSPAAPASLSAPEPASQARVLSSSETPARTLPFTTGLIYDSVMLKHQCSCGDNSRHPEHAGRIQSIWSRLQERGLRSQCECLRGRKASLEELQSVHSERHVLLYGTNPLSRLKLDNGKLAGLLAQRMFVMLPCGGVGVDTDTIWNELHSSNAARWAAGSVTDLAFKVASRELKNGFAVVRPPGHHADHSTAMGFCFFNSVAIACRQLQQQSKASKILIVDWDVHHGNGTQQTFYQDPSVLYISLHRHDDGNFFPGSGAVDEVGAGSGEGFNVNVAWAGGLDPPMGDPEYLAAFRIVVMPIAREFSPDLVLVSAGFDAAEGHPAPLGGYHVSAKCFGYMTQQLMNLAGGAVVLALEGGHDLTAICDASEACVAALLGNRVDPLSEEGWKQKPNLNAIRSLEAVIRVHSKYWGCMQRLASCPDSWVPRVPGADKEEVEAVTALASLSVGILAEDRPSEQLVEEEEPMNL

HDAC5 = HDAC5 (Homo sapiens (Human), UniProt Q9UQL6); test: Enzymatic screening, HDAC5 inhibition; assay type: biochemical
HDAC2 = HDAC2 (Homo sapiens (Human), UniProt Q92769); test: Enzymatic screening, HDAC2 inhibition; assay type: biochemical
Chain of HDAC2 (Q92769 whole entry): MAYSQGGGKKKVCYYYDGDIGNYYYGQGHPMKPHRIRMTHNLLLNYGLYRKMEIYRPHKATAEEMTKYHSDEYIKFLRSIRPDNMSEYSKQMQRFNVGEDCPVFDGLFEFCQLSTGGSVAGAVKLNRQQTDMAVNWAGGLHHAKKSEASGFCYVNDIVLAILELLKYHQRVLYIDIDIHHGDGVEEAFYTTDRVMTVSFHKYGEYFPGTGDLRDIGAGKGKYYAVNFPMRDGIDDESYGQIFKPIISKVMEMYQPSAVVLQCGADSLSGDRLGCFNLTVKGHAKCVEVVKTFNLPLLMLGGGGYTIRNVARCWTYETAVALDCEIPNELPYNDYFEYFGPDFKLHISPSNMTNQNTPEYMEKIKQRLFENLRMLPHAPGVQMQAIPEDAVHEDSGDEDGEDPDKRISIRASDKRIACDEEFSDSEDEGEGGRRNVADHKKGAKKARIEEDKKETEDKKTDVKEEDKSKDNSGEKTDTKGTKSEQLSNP

HDAC3 = HDAC3 (Homo sapiens (Human), UniProt O15379); test: Enzymatic screening, HDAC3 inhibition; assay type: biochemical
recombinant human HDAC1 = recombinant human HDAC1 (Homo sapiens (Human), UniProt Q13547); test: Enzymatic screening, HDAC1 inhibition (fluorogenic FdL_G substrate); assay type: biochemical
Chain of recombinant human HDAC1 (Q13547 whole entry): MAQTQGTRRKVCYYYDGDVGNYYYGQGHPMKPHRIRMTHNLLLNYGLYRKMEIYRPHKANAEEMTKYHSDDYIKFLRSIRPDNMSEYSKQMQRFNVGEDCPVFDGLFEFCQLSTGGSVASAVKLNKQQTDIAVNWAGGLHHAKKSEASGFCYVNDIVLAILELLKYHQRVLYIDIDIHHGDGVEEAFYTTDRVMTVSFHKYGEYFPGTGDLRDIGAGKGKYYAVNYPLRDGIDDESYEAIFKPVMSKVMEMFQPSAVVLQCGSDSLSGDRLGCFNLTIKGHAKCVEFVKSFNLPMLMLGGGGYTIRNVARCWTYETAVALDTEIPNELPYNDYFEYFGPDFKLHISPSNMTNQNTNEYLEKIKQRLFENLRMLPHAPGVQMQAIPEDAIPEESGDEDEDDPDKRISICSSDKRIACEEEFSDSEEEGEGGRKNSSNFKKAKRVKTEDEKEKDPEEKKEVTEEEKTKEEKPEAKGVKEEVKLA
Procedure, shortened: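 Recombinant human HDAC1 inhibition was measured fluorometrically using the FLUOR DE LYS-Green (FdL_G) substrate. Compounds at 8 doses (1% DMSO final) in Tris-HCl pH 8 buffer with NaCl, Tween-20 and glycerol were preincubated in triplicate with enzyme and 1 mg/mL BSA, then given substrate. Developer I plus 2 μM TSA was added, and fluorescence read after 25 minutes in the dark.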

HDAC11 = HDAC11 (Homo sapiens (Human), UniProt Q96DB2); test: Enzymatic screening, HDAC11 inhibition; assay type: biochemical
Chain of HDAC11 (Q96DB2 whole entry): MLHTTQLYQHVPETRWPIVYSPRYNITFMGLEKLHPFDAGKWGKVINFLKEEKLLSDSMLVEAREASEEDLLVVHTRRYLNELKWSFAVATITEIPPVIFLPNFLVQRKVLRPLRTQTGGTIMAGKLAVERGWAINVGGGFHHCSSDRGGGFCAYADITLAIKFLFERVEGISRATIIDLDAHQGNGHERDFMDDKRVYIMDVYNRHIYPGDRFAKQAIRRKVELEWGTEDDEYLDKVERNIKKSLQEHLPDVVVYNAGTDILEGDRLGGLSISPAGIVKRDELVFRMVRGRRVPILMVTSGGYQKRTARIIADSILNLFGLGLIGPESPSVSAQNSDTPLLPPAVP

[1] = 90 min, pH 7.4
HDAC8 = HDAC8 (Homo sapiens (Human), UniProt Q9BY41); test: Enzymatic screening, HDAC8 inhibition; assay type: biochemical
Procedure, shortened: as §1

recombinant human HDAC6 = recombinant human HDAC6 (Homo sapiens (Human), UniProt Q9UBN7); test: Enzymatic screening, HDAC6 inhibition (fluorogenic FdL_G substrate); assay type: biochemical
Procedure, shortened: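 Enzyme was preincubated with compound (8 doses, triplicate, 1% DMSO) in 25 mM Tris-HCl pH 8, 130 mM NaCl, 0.05% Tween-20, 10% glycerol, with BSA. A FLUOR DE LYS-Green substrate was then added, and fluorescence was read after developer plus 2 μM TSA.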

HDAC9 = HDAC9 (Homo sapiens (Human), UniProt Q9UKV0); test: Enzymatic screening, HDAC9 inhibition; assay type: biochemical
Chain of HDAC9 (Q9UKV0 whole entry): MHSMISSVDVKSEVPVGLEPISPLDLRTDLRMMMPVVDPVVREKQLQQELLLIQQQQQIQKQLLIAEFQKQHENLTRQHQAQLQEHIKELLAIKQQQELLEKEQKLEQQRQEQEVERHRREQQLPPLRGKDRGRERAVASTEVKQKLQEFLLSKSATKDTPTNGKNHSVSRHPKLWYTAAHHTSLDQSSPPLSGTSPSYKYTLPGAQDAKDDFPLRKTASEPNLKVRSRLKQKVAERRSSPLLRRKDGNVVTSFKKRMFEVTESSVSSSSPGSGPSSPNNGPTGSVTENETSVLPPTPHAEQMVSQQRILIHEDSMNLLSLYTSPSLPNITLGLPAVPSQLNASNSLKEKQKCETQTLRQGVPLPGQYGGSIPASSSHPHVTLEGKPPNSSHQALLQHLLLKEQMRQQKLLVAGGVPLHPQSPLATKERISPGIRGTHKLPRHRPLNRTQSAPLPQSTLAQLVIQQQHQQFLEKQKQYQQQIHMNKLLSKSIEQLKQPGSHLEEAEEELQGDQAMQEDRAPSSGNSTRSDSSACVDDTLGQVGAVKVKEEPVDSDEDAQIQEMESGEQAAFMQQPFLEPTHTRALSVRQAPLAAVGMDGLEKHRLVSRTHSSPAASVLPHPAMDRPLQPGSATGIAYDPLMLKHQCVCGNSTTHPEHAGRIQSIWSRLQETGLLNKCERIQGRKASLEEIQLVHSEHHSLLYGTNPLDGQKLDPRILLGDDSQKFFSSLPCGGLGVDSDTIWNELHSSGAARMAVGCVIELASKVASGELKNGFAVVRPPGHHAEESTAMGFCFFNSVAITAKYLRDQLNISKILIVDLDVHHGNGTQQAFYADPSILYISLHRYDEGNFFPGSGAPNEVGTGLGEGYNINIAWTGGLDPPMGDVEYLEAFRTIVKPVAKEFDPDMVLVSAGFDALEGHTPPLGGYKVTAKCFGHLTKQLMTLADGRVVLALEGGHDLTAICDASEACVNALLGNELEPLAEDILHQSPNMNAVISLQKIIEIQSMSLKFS
Procedure, shortened: as §1

HDAC4 = HDAC4 (Homo sapiens (Human), UniProt P56524); test: Enzymatic screening, HDAC4 inhibition; assay type: biochemical
Chain of HDAC4 (P56524 whole entry): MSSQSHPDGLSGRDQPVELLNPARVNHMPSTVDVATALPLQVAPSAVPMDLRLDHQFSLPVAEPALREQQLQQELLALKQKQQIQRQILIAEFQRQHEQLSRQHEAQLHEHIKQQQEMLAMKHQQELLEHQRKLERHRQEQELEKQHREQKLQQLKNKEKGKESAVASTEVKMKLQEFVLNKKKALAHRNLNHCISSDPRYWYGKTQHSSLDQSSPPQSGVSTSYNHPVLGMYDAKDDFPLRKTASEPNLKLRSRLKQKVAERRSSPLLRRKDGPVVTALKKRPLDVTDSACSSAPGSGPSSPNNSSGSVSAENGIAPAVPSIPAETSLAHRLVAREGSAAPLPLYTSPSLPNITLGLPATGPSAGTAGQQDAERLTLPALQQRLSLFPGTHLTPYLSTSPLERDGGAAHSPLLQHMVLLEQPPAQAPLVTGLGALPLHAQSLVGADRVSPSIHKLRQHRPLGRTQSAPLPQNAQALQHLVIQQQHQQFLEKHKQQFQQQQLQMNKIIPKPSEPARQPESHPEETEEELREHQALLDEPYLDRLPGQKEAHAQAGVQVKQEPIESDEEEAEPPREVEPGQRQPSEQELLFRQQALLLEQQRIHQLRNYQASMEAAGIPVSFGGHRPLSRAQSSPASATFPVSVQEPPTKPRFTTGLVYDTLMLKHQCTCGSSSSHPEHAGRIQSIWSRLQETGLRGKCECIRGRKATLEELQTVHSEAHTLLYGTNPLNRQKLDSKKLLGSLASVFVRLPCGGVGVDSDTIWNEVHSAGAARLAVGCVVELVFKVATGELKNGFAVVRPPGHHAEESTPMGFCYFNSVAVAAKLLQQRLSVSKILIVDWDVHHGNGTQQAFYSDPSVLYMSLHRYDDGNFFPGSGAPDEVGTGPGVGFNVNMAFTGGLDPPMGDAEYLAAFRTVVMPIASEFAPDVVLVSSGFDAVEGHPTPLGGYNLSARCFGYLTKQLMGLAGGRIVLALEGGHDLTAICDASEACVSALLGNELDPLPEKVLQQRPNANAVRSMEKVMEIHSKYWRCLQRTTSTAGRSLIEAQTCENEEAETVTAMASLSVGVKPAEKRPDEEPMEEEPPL
Procedure, shortened: as §1

[2] = 4 h
[3] = test system: α-tubulin acetylation in 697 cell line; test: In vitro α-tubulin acetylation in 697 cell line (ELISA); assay type: cell-based; conditions: 16 hours, read-out: fold increase @ 1 uM TubAc (ratio of acetylated tubulin and total tubulin towards control)
Procedure, shortened: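 B 697 cells in RPMI 10% FCS were treated for 16 h at 37 °C with compound at 1000, 333, 111 or 37 nM. Lysate (0.3 μg protein) was coated and probed by ELISA for acetylated and total α-tubulin, read at 450 nm. The acetylated/total ratio is given as fold over untreated control.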

[4] = 4 h; remark: listed apart in the source
[5] = 90 min, pH 7.4; remark: listed apart in the source
[6] = Stability to Phase I metabolism in rat S9 liver fraction; conditions: after 90 minutes, 37° C.
Stability in rat plasma = conditions: after 4 hours, 37° C.
[7] = Stability in human plasma; conditions: after 4 hours, 37° C.
[8] = Stability to Phase I metabolism in human S9 liver fraction; conditions: after 90 minutes, 37° C.

Chain of HDAC10 (Q969S8 whole entry): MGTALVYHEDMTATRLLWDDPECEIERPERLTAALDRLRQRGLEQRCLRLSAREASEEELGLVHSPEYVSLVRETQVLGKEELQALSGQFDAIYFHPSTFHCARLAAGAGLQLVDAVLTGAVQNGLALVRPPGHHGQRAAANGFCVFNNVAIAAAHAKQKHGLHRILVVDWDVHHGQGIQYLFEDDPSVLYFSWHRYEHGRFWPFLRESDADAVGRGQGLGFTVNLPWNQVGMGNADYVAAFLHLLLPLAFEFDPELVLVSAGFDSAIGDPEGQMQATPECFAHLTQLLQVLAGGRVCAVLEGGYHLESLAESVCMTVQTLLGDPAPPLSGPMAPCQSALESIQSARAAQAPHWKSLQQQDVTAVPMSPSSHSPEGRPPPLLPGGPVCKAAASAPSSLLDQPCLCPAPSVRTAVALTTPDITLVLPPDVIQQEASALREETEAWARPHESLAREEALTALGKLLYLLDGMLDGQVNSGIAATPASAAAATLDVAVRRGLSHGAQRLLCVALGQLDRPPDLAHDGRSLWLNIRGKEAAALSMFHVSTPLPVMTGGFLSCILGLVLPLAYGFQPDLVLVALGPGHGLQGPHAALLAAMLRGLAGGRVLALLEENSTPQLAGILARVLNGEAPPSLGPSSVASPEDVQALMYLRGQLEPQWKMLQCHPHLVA

IC50 (HDAC10) [µM] | IC50 (HDAC7) [µM] | IC50 (HDAC5) [µM] | IC50 (HDAC2) [µM] | IC50 (HDAC3) [µM] | IC50 (HDAC11) [µM] | IC50 (HDAC8) [µM] | IC50 (HDAC9) [µM] | IC50 (HDAC4) [µM] | residual percentage in RAT S9 FRACTION [6] [%] | residual percentage in RAT PLASMA (Stability in rat plasma) [%] | residual percentage in HUMAN PLASMA [7] [%] | residual percentage in HUMAN S9 FRACTION [8] [%] | SMILES | IC50 (recombinant human HDAC1) [µM] | residual percentage in HUMAN S9 FRACTION [1] [%] | IC50 (recombinant human HDAC6) [µM] | residual percentage in RAT PLASMA [2] [%] | fold induction at 1 µM [3] | residual percentage in HUMAN PLASMA [4] [%] | residual percentage in RAT S9 FRACTION [5] [%]
> 30 | > 30 | > 30 | > 30 | > 30 | > 30 | > 200 | > 30 | > 30 | 90 | 75 | 84 | 99 | Nc1ccc(-c2cn(Cc3ccc(-c4nnc(C(F)F)o4)c(F)c3F)nn2)cn1 [compound 21, 5-(1-(4-(5-(difluoromethyl)-1,3,4-oxadiazol-2-yl)-2,3-difluorobenzyl)-1H-1,2,3-triazol-4-yl)pyridin-2-amine] | > 200 | – | 0.017 | – | 16 | – | –
> 30 | > 30 | > 30 | > 30 | > 30 | > 30 | > 200 | > 30 | > 30 | 98 | 96 | 92 | 88 | FC(F)c1nnc(-c2ccc(Cn3cnc(-c4ccc(NC5=NCCN5)cc4)c3)cc2)o1 [compound 22, N-(4-(1-(4-(5-(difluoromethyl)-1,3,4-oxadiazol-2-yl)benzyl)-1H-imidazol-4-yl)phenyl)-4,5-dihydro-1H-imidazol-2-amine] | > 200 | – | 0.017 | – | 17 | – | –
– | – | – | – | – | – | – | – | – | – | – | – | – | O=C1Nc2ccc(-c3cn(Cc4ccc(-c5nnc(C(F)F)o5)cc4)nn3)cc2C12CCNCC2 [compound 46, 5-(1-(4-(5-(difluoromethyl)-1,3,4-oxadiazol-2-yl)benzyl)-1H-1,2,3-triazol-4-yl)spiro[indoline-3,4′-piperidin]-2-one] | > 200 | 81 | 0.02 | 72 | 5 | 74 | 60

SMILES | IC50 (HDAC10) [µM] | IC50 (HDAC7) [µM] | IC50 (HDAC5) [µM] | IC50 (HDAC2) [µM] | IC50 (HDAC3) [µM] | IC50 (HDAC11) [µM] | IC50 (HDAC8) [µM] | IC50 (HDAC9) [µM] | IC50 (HDAC4) [µM] | residual percentage in RAT S9 FRACTION [6] [%] | residual percentage in RAT PLASMA (Stability in rat plasma) [%] | residual percentage in HUMAN PLASMA [7] [%] | residual percentage in HUMAN S9 FRACTION [8] [%] | IC50 (recombinant human HDAC1) [µM] | residual percentage in HUMAN S9 FRACTION [1] [%] | IC50 (recombinant human HDAC6) [µM] | residual percentage in RAT PLASMA [2] [%] | fold induction at 1 µM [3] | residual percentage in HUMAN PLASMA [4] [%] | residual percentage in RAT S9 FRACTION [5] [%]
O=C1Nc2ccc(-c3cn(Cc4ccc(-c5nnc(C(F)F)o5)cn4)nn3)cc2C12CCNCC2 [Compd. 19, 5-(1-((5-(5-(difluoromethyl)-1,3,4-oxadiazol-2-yl)pyridin-2-yl)methyl)-1H-1,2,3-triazol-4-yl)spiro[indoline-3,4′-piperidin]-2-one] | > 30 | > 30 | > 30 | > 30 | > 30 | > 30 | 572 | > 30 | > 30 | – | – | – | – | > 200 | 96 | 0.011 | 83 | 4 | 83 | 94
